Data as given in patent publication US20230028224A1, “Novel Topical Therapy” (priority 2019, published 2023).

Legend:
[1] = injection of the Supratrochlear nerve followed by SPG block; format: in vivo; conditions: bupivacaine 0.5% injected to the Supratrochlear nerve, SPG block subsequently
Excerpt: (§1) Another aspect of the invention is the combination of stimulation of SPG with branches of Trigeminal nerves, or occipital nerves. There is known C-2 and 3 connection with Trigeminal nerve and SPG and likely with C1.

[2] = injection of occipital nerves followed by SPG block; format: in vivo; conditions: 0.5% injected into occipital nerves, then SPG block
Excerpt: as §1

CCCCN1CCCCC1C(=O)Nc1c(C)cccc1C (centres unmarked) [bupivacaine]
result of subsequent SPG block [1]: better result with SPG block subsequently
headache [2]: headache was further decreased with SPG block
